What was measured:
U-118 MG [1] = conditions: U-118, 72 h, same experimental conditions; cited from earlier work
Method: In 2D experiments, we observed a remarkable effect on U-118 cells with all nanofibers carrying TMZ at different concentrations, which increased proportionally with the concentration. In particular, treatment with NF-TMZ (carrying TMZ at a concentration of 10 μM) caused a decrease in cell viability at 72 h by more than 40%, whereas a similar decrease (under the same experimental conditions) is reported in the literature with a TMZ concentration of 100 μM.[41] U-87 cells responded less to the treatment, but we still observed a reduction in cell viability of 30%. Indeed, the experiments performed ...

[2] = cited from earlier work
Excerpt: GBM is the most aggressive type of brain cancer, with a 5-year survival rate of less than 5% and a median survival period of 12–15 months.[9],[10] The standard treatment, consisting of surgery followed by chemotherapy with temozolomide (TMZ) and radiation therapy, marginally improves survival.

[3] = tested on: human brain microvascular endothelial cells (HBMEC); test: PrestoBlue cell viability, HBMEC; format: cell-based; conditions: treated every 24 h for 3 days, TMZ 10 μM
Method: To verify whether NF-t or NF-TMZ influenced healthy brain endothelial cells constitutively expressing EGFRs, the experiment described above was conducted on human brain microvascular endothelial cells (HBMEC) and brain endothelial cells (bEnd.3) to assess their effects . Cells were seeded in a 96-well plate (15,000 cells per well) in their appropriate culture medium. After 24 h, cells were treated likewise with U-118 and U-87 cells with 10 μM TMZ, both conjugated and unconjugated with NF-t. The control was performed on cells cultured only in the medium. Under the same conditions as for 2D cells, the PrestoBlue assay was performed. […] TMZ release from NF-TMZ was evaluated using matrix metalloproteinase-9 (MMP-9). In particular, NF-TMZ was prepared as reported before and hydrated in the following buffer solution: 50 mM HEPES, 200 mM NaCl, 10 mM CaCl2, and 1 mM ZnCl2, at pH 7. The MMP-9 was preactivated with APMA 100 μM and Tris-HCl 50 mM (pH 7.2) and was left at 37 °C for 3 h.[33],[35] Once activated, MMP-9 was added to NF-TMZ and the culture medium at a final concentration of 40 nM; and cells were incubated for 72 h.

U-87 MG = test: PrestoBlue cell viability, 2D U-87; format: cell-based, human
Method: (§1) Glioblastoma/astrocytoma U-87 MG (U-87) and glioma U-118 MG (U-118) cell lines derived from the human brain were plated in 25 cm^2 flasks. They were grown individually in Dulbecco’s modified eagle’s medium high glucose (DMEM), supplemented with fetal bovine serum (FBS, 10%), penicillin/streptomycin (P/S, 100 U/mL), and L-glutamine (L/GLUT, 2 mM, Sigma-Aldrich), in a humidified incubator (37 °C, 5% CO2). At 70% confluence, cells were individually detached with a 0.25% solution of trypsin-EDTA.
(§2) For 2D experiments, U-118 and U-87 cells were seeded in 48-well plates, at approximately 20,000 cells per well in DMEM culture medium with 10% FBS, under standard cell culture conditions (5% CO2, 37 °C). Once the cells were attached, they were treated for 24, 48, and 72 h with 1) NF-TMZ carrying TMZ at different concentrations: 2.5, 5, 7.5, and 10 μM; 2) NF-t; 3) free TMZ at different concentrations (0, 10, 100, and 250 μM). […] At the end of the incubation time, a cell viability assay was performed using the PrestoBlue assay: the cells were incubated for 1 h according to the manufacturer’s protocol, and then absorbance was measured at 570 nm (with 600 nm as the reference wavelength) using a Bio-Tek Synergy HT Microplate reader.

3D U-118 [4] = test: Annexin V-FITC/Propidium Iodide assay, 3D U-118; format: cell-based, human; conditions: 3D U-118, 24 h, TMZ 10 μM
Method: (§3) To identify apoptotic and necrotic cells, Annexin V-FITC/Propidium Iodide (PI) assay was performed according to the manufacturer’s protocol. Annexin V highlights apoptotic cells by binding to phosphatidylserine (PS) on their membranes . Propidium Iodide (PI) binds to the DNA of necrotic cells, as it is not permeable to the cell membrane. Cells lose the membrane integrity, Annexin V-FITC/PI can enter the cells. After the 3D cell treatment, cells were stained with Annexin V-FITC/PI for 20 min in the dark. After washing with PBS, nuclei were labeled with 4′,6-diamidino-2-phenylindole (DAPI) for 5 min. Images of the 3D cells were acquired using the JuLi Stage_RealTime Cell History Recorder microscope with a 10x objective, using different channels: RFP, GFP, and DAPI. The images were corrected for brightness and contrast using Fiji software and analyzed to evaluate morphological parameters after treatments. For each experimental condition, three different assays were repeated.

U87 MG spheroids = test: Spheroid shape descriptors (Fiji), U87 MG; format: cell-based, human
Method: as §3
(§4) To evaluate shape descriptors, 10 spheroids for each formulation were imaged and analyzed by Fiji software (Table 4).
(§5) Table 4 was obtained using Fiji software, for U-118 and U-87 spheroids treated with NF-TMZ, free TMZ, and NF-t, compared with controls (no treatment), ***p < 0.001. Circularity was calculated as [drawing 3] . Values of 1.0 indicate a perfect circle; while as the value approaches 0.0, it indicates an increasingly elongated shape. Feret’s diameter was the maximum caliper of the object, also known as the longest distance between any two points along the selection boundary. The minimum caliper diameter is indicated as Min Feret. The aspect ratio of the particle’s fitted ellipse was calculated as [drawing 4] and is indicated as AR. Roundness was calculated as 4 [drawing 5] and is the inverse of AR. Shape descriptors describe the eventual changes in spheroid morphology following treatment.

3D U-87 [5] = test: PrestoBlue cell viability, 3D U-87 spheroids; format: cell-based, human; conditions: 3D U-87, 10 μM TMZ, 72 h, treated every 24 h
Method: Once the appropriate concentration corresponding to the greatest lowering of cell viability was established, we proceeded with the 3D U-118 and 3D U-87 cell assays. To produce 3D U-118 and 3D U-87 cells, we used the hanging drop method. Briefly, 10,000 cells per drop were placed in the lid of a 100 mm dish, creating a hydration chamber by placing PBS in the dish bottom. After incubating for 48 h at 37 °C/5% CO2, the aggregates were transferred to a 48-well plate (5 spheroids per well: approximately 50,000 cells/well). The 3D cells were treated every 24 h for 3 days. Each treatment was conducted on 10 spheroids: approximately 100,000 cells for each experimental class: 1) control; 2) NF-t; 3) NF-TMZ (10 μM); 4) free TMZ (10 μM). At the end of the incubation time, a cell viability assay was performed with using the PrestoBlue assay: the cells were incubated for 90 min, according to the manufacturer’s protocol. At the end of the incubation time, we measured the absorbance at 570 nm (with 600 nm as the reference wavelength) using a Bio-Tek Synergy HT Microplate reader.

U-118 MG [6] = test: PrestoBlue cell viability, 2D U-118; format: cell-based, human
Method: as §1, §2

3D U-118 [7] = test: PrestoBlue viability on 3D dynamic in vitro BBB model, 3D U-118; format: cell-based, human; conditions: 3D U-118 in lower chamber, injection into upper chamber, TMZ 10 μM, 72 h
Method: (§6) To evaluate the effects of NF-TMZ on fluid-dynamically cultured 3D GBM cells, we set up different bioreactors containing HBMEC and hPC-PL cells in the upper chamber and 3D U-118 cells or 3D U-87 cells in the lower chamber. NF-TMZ (10 μM), NF-t, and free TMZ (10 μM) were injected into the upper chamber, and their effects were evaluated after 72 h using the PrestoBlue viability assay. Briefly, 72 h after treatment, spheroids in the lower chamber were taken out and placed inside 48-well plates, and the PrestoBlue viability reagent (1:10) was added for 1.5 h. The absorbance was quantified using a Bio-Tek Synergy HT Microplate Reader. The control bioreactor was performed with HBMEC and hPC–PL cells in the upper chamber; and 3D U-118 MG cells and 3D U-87 MG cells in the lower chamber without treatment.

U118 MG spheroids = test: Spheroid shape descriptors (Fiji), U118 MG; format: cell-based, human
Method: as §3, §4, §5

3D U-87 [8] = test: Annexin V-FITC/Propidium Iodide assay, 3D U-87; format: cell-based, human; conditions: TMZ 10 μM
Method: as §3

3D U-87 [9] = test: PrestoBlue viability on 3D dynamic in vitro BBB model, 3D U-87; format: cell-based, human; conditions: 3D U-87 in lower chamber, injection into upper chamber, TMZ 10 μM, 72 h
Method: as §6

[10] = U87 MG spheroids, 10 spheroids per formulation, Fiji
[11] = U118 MG spheroids, 10 spheroids per formulation, Fiji, ***p < 0.001 vs controls

Compound: Cn1nnc2c(C(N)=O)ncn2c1=O [TMZ, temozolomide]
- TMZ concentration reported for a similar decrease in cell viability (U-118 MG [1]): 100 µM
- extravasation from blood to brain [2]: ~20%
- plasma half-life [2]: 2 h
- water solubility [2]: poor water solubility
- cell viability versus control [3]: no significant difference
- free TMZ concentration giving a similar effect as NF-TMZ (TMZ 10 μM) (U-87 MG; 2D U-87): 100 to 250 µM
- concentrations at which TMZ acted on cell survival (U-87 MG; 2D U-87, 24- and 48-h treatments): ≥ 100 µM
- apoptotic cells (Annexin V) (3D U-118 [4]): initial burst of apoptosis
- spheroid surface area compared to control and NF-t (U87 MG spheroids; 3D U-87): significantly lower
- Circularity (U87 MG spheroids; [10]): 0.280
- Feret’s diameter (U87 MG spheroids; [10]): 841.910
- Min Feret (U87 MG spheroids; [10]): 612.895
- AR (U87 MG spheroids; U87 MG spheroids, aspect ratio of fitted ellipse, Fiji): 1.404
- Round (U87 MG spheroids; U87 MG spheroids, roundness, Fiji): 0.732
- decrease in viability compared to the control (3D U-87 [5]): 55%
- free TMZ concentration giving a similar effect as NF-TMZ (TMZ 10 μM) (U-118 MG [6]): 100 to 250 µM
- lower viability compared with the control (3D U-118 [7]): < 20%
- spheroid surface area compared to control and NF-t (U118 MG spheroids; 3D U-118): significantly lower
- Circularity (U118 MG spheroids; U118 MG spheroids, 10 spheroids per formulation, Fiji): 0.425
- Feret’s diameter (U118 MG spheroids; [11]): 512.096
- Min Feret (U118 MG spheroids; [11]): 397.785
- AR (U118 MG spheroids; U118 MG spheroids, aspect ratio of fitted ellipse, Fiji): 1.298
- Round (U118 MG spheroids; U118 MG spheroids, roundness, Fiji): 0.802
- apoptotic cells (Annexin V) compared to the control (3D U-87 [8]; 3D U-87, 24 h): four-time increasing level
- necrotic cells (PI) (3D U-87 [8]; 3D U-87, 48 h): increase in necrotic cells
- lower viability compared with the control (3D U-87 [9]): 13%

Source: PMC11979881, “Engineering Multifunctional Peptide-Decorated Nanofibers for Targeted Delivery of Temozolomide across the Blood–Brain Barrier” (Molecular Pharmaceutics, 2025)
